US8389523B2, “Substituted quinoxaline and an agrochemical composition thereof” (Kumiai Chemical Industry Co., Ltd., priority 2007, dated 2013)

Key:
Format in all cases: in vivo
Set-up in all cases: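 grade 0 to 5 of growth suppression where 5 is 90% or more and 0 below 10%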
[1] = system: Echinochloa oryzicola Vasing; test: Herbicidal effects in paddy field soil treatment (Test Example 1); settings: paddy field soil treatment; 1000 g of the active ingredient per hectare; wettable powder added dropwise on water surface; 21st day after treatment
In short: (§1)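 Weed seeds were sown into puddled, leveled paddy soil in pots and flooded to 3 cm water depth. One day later the diluted wettable powder formulation was dropped onto the water surface at 1000 g active ingredient per hectare. Herbicidal effect was scored on day 21 after greenhouse growth.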

[2] = system: Monochoria vaginalis (Burm. f.) Presl var. plantaginea (Roxb.) Solms-Laub.; test: as above; settings: paddy field soil treatment; 1000 g of the active ingredient per hectare; wettable powder added dropwise on water surface; 21st day after treatment
In short: as §1

[3] = system: Scirpus juncoides Roxb. var. ohwianus. T. Koyama; test: as above; settings: paddy field soil treatment; 1000 g of the active ingredient per hectare; wettable powder added dropwise on water surface; 21st day after treatment
In short: as §1

[4] = system: Abutilon theophrasti medicus; test: Herbicidal effects in upland field soil treatment (Test Example 2); settings: 1000 g active ingredient per hectare, 21st day after treatment, criteria of Table 138
In short: (§2)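 Pre-emergence soil application: seeds sown in upland field soil, covered, then wettable powder diluted in water sprayed on the soil surface at 1000 g active ingredient/ha in 1000 L/ha. Plants grown in greenhouse; herbicidal effect scored on a rating scale 21 days after treatment.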

[5] = system: Amaranthus viridis L.; test: as above; settings: 1000 g active ingredient per hectare, 21st day after treatment, criteria of Table 138
In short: as §2

[6] = system: Abutilon theophrasti medicus; test: Herbicidal effects in upland field foliar treatment (Test Example 3); settings: 1000 g active ingredient per hectare, 14th day after treatment, criteria of Table 138
In short: (§3)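 Weeds were sown in upland field soil and grown two weeks in a greenhouse before a foliar spray over the whole plant. Wettable powder was diluted in water and applied at 1000 L/ha, delivering 1000 g active ingredient/ha. Herbicidal effect was scored against set rating criteria 14 days after treatment.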

[7] = system: Amaranthus viridis L.; test: as above; settings: 1000 g active ingredient per hectare, 14th day after treatment, criteria of Table 138
In short: as §3

[8] = system: Echinochloa crus-galli (L.) P. Beauv. var. crus-galli; test: as above; settings: 1000 g active ingredient per hectare, 14th day after treatment, criteria of Table 138
In short: as §3

Row | SMILES | Herbicidal effects index, Echinochloa oryzicola Vasing [1] | Herbicidal effects index, Monochoria vaginalis (Burm. f.) Presl var. plantaginea (Roxb.) Solms-Laub. [2] | Herbicidal effects index, Scirpus juncoides Roxb. var. ohwianus. T. Koyama [3] | herbicidal effect (index) on Abutilon theophrasti medicus [4] | herbicidal effect (index) on Amaranthus viridis L. [5] | herbicidal effect (index) on Abutilon theophrasti medicus [6] | herbicidal effect (index) on Amaranthus viridis L. [7] | herbicidal effect (index) on Echinochloa crus-galli (L.) P. Beauv. var. crus-galli [8]
1 | CC1=NOC(Cn2c(=O)c(C(=O)C3=C(O)CCCC3=O)nc3ccccc32)C1 (stereo not drawn) [I-212] | 5 | 5 | 5 | 5 | 5 | 4 | 5 | 5
2 | Cc1cc(Cn2c(=O)c(C(=O)C3=C(O)CCCC3=O)nc3ccccc32)on1 [I-213] | 4 | 5 | 5 | 5 | 5 | 5 | 5 | 5
3 | Cn1c(=O)c(C(=O)C2=C(O)CCCC2=O)nc2cc(F)ccc21 [I-220] | 5 | 5 | 5 | 5 | 5 | 5 | 5 | 5
4 | Cn1c(=O)c(C(=O)C2=C(O)CCCC2=O)nc2ccc(F)cc21 [I-221] | 5 | 5 | 5 | 5 | 5 | 5 | 5 | 4
5 | Cn1c(=O)c(C(=O)C2=C(O)CCCC2=O)nc2cc(Cl)ccc21 [I-225] | 5 | 5 | 4 | 5 | 5 | 5 | 5 | 4
6 | Cn1c(=O)c(C(=O)C2=C(O)CCCC2=O)nc2ccc(Cl)cc21 [I-227] | 5 | 5 | 5 | 5 | 5 | 5 | 5 | 4
7 | Cn1c(=O)c(C(=O)C2=C(O)CCCC2=O)nc2cccc(Cl)c21 [I-229] | 4 | 5 | 5 | 5 | 5 | 5 | 5 | 4
8 | COCCn1c(=O)c(C(=O)C2=C(O)CCCC2=O)nc2cccc(Cl)c21 [I-230] | 5 | 5 | 5 | 4 | 5 | 5 | 5 | 5
9 | O=C1CCCC(O)=C1C(=O)c1nc2ccccc2n(-c2cccc3ccccc23)c1=O [I-263] | 5 | 5 | 5 | 5 | 5 | 5 | 5 | 5
10 | Cc1cc(-n2c(=O)c(C(=O)C3=C(O)CCCC3=O)nc3ccccc32)nn1C [I-266] | 5 | 5 | 5 | 5 | 5 | 5 | 5 | 5
11 | Cn1nc(-n2c(=O)c(C(=O)C3=C(O)CCCC3=O)nc3ccccc32)cc1C(F)(F)F [I-267] | 5 | 5 | 5 | 5 | 5 | 5 | 5 | 5
12 | O=C1CCCC(O)=C1C(=O)c1nc2ccccc2n(-c2nc(C(F)(F)F)co2)c1=O [I-268] | 5 | 5 | 5 | 5 | 5 | 5 | 5 | 5
13 | O=C1CCCC(O)=C1C(=O)c1nc2ccccc2n(-c2nncs2)c1=O [I-269] | 5 | 5 | 5 | 5 | 5 | 5 | 5 | 5
14 | Cc1nnc(-n2c(=O)c(C(=O)C3=C(O)CCCC3=O)nc3ccccc32)s1 [I-270] | 5 | 5 | 5 | 5 | 5 | 5 | 5 | 5
15 | O=C1CCCC(O)=C1C(=O)c1nc2ccccc2n(-c2ccc(Br)cn2)c1=O [I-271] | 5 | 5 | 5 | 5 | 5 | 5 | 5 | 5
